Assay results: ChEMBL document CHEMBL3797029, “Purinylpyridinylamino-based DFG-in/αC-helix-out B-Raf inhibitors: Applying mutant versus wild-type B-Raf selectivity indices for compound profiling” (Bioorg Med Chem, 2016)

What was measured:
[1] = system: cAMP-dependent protein kinase catalytic subunit alpha; experiment: Inhibition of partial length wild type human PKACalpha expressed in bacterial system assessed as enzyme activity at 1 uM relative to control; set-up: scale not given: the % may be the effect or the level left
[2] = target: Rhodopsin kinase GRK1 (Homo sapiens) (UniProt Q15835); experiment: Inhibition of full length wild type human GRK1 expressed in mammalian system assessed as enzyme activity at 1 uM relative to control; set-up: scale not given: the % may be the effect or the level left
[3] = target: Epithelial discoidin domain-containing receptor 1 (Homo sapiens) (UniProt Q08345); experiment: Inhibition of partial length wild type human DDR1 expressed in bacterial system assessed as enzyme activity at 1 uM relative to control; set-up: scale not given: the % may be the effect or the level left
[4] = target: Phosphatidylinositol 4,5-bisphosphate 3-kinase catalytic subunit alpha isoform (Homo sapiens) (UniProt P42336); experiment: Inhibition of partial length wild type human PIK3CA expressed in mammalian system assessed as enzyme activity at 1 uM relative to control; set-up: scale not given: the % may be the effect or the level left
[5] = target: 5'-AMP-activated protein kinase catalytic subunit alpha-1 (Homo sapiens) (UniProt Q13131); experiment: Inhibition of partial length wild type human AMPKalpha1 expressed in bacterial system assessed as enzyme activity at 1 uM relative to control; set-up: scale not given: the % may be the effect or the level left
[6] = target: Mitogen-activated protein kinase 1 (Homo sapiens) (UniProt P28482); experiment: Inhibition of full length wild type human ERK2 expressed in bacterial system assessed as enzyme activity at 1 uM relative to control; set-up: scale not given: the % may be the effect or the level left
[7] = target: Mitogen-activated protein kinase 12 (Homo sapiens) (UniProt P53778); experiment: Inhibition of full length wild type human p38gamma expressed in bacterial system assessed as enzyme activity at 1 uM relative to control; set-up: scale not given: the % may be the effect or the level left
[8] = target: Calcium/calmodulin-dependent protein kinase type II subunit delta (Homo sapiens) (UniProt Q13557); experiment: Inhibition of partial length wild type human CAMK2delta expressed in bacterial system assessed as enzyme activity at 1 uM relative to control; set-up: scale not given: the % may be the effect or the level left
[9] = target: Tyrosine-protein kinase Lck (Homo sapiens) (UniProt P06239); experiment: Inhibition of partial length wild type human LCK expressed in bacterial system assessed as enzyme activity at 1 uM relative to control; set-up: scale not given: the % may be the effect or the level left
[10] = target: Bone morphogenetic protein receptor type-1A (Homo sapiens) (UniProt P36894); experiment: Inhibition of partial length wild type human BMPR1A expressed in bacterial system assessed as enzyme activity at 1 uM relative to control; set-up: scale not given: the % may be the effect or the level left
[11] = target: Protein-tyrosine kinase 6 (Homo sapiens) (UniProt Q13882); experiment: Inhibition of partial length wild type human BRK expressed in bacterial system assessed as enzyme activity at 1 uM relative to control; set-up: scale not given: the % may be the effect or the level left
[12] = target: Phosphatidylinositol 4,5-bisphosphate 3-kinase catalytic subunit delta isoform (Homo sapiens) (UniProt O00329); experiment: Inhibition of partial length wild type human PIK3CD expressed in mammalian system assessed as enzyme activity at 1 uM relative to control; set-up: scale not given: the % may be the effect or the level left
[13] = target: Serine/threonine-protein kinase Nek6 (Homo sapiens) (UniProt Q9HC98); experiment: Inhibition of full length wild type human NEK6 expressed in bacterial system assessed as enzyme activity at 1 uM relative to control; set-up: scale not given: the % may be the effect or the level left
[14] = target: Interleukin-1 receptor-associated kinase 4 (Homo sapiens) (UniProt Q9NWZ3); experiment: Inhibition of partial length wild type human IRAK4 expressed in mammalian system assessed as enzyme activity at 1 uM relative to control; set-up: scale not given: the % may be the effect or the level left
[15] = target: Dual specificity protein kinase CLK1 (Homo sapiens) (UniProt P49759); experiment: Inhibition of full length wild type human CLK1 expressed in bacterial system assessed as enzyme activity at 1 uM relative to control; set-up: scale not given: the % may be the effect or the level left
[16] = target: Serine/threonine-protein kinase B-raf (Homo sapiens, UniProt P15056); experiment: Inhibition of wild type B-Raf (unknown origin) assessed as MEK1 phosphorylation using MEK1-Avitag as substrate after 1 hr by HTRF assay
[17] = target: Serine/threonine-protein kinase 32B (Homo sapiens) (UniProt Q9NY57); experiment: Inhibition of full length wild type human YANK2 expressed in bacterial system assessed as enzyme activity at 1 uM relative to control; set-up: scale not given: the % may be the effect or the level left
[18] = target: Tyrosine-protein kinase Lyn (Homo sapiens) (UniProt P07948); experiment: Inhibition of partial length wild type human LYN expressed in bacterial system assessed as enzyme activity at 1 uM relative to control; set-up: scale not given: the % may be the effect or the level left
[19] = target: Serine/threonine-protein kinase MARK1 (Homo sapiens) (UniProt Q9P0L2); experiment: Inhibition of partial length wild type human MARK1 expressed in bacterial system assessed as enzyme activity at 1 uM relative to control; set-up: scale not given: the % may be the effect or the level left
[20] = target: Casein kinase I isoform gamma-2 (Homo sapiens) (UniProt P78368); experiment: Inhibition of full length wild type human CSNK1G2 expressed in bacterial system assessed as enzyme activity at 1 uM relative to control; set-up: scale not given: the % may be the effect or the level left
[21] = target: Dual specificity mitogen-activated protein kinase kinase 5 (Homo sapiens) (UniProt Q13163); experiment: Inhibition of partial length wild type human MEK5 expressed in mammalian system assessed as enzyme activity at 1 uM relative to control; set-up: scale not given: the % may be the effect or the level left
[22] = target: Serine/threonine-protein kinase pim-1 (Homo sapiens) (UniProt P11309); experiment: Inhibition of partial length wild type human PIM1 expressed in bacterial system assessed as enzyme activity at 1 uM relative to control; set-up: scale not given: the % may be the effect or the level left
[23] = target: Serine/threonine-protein kinase/endoribonuclease IRE1 (Homo sapiens) (UniProt O75460); experiment: Inhibition of partial length wild type human ERN1 expressed in mammalian system assessed as enzyme activity at 1 uM relative to control; set-up: scale not given: the % may be the effect or the level left
[24] = target: cGMP-dependent protein kinase 1 (Homo sapiens) (UniProt Q13976); experiment: Inhibition of partial length wild type human PRKG1 expressed in bacterial system assessed as enzyme activity at 1 uM relative to control; set-up: scale not given: the % may be the effect or the level left
[25] = target: Interferon-induced, double-stranded RNA-activated protein kinase (Homo sapiens) (UniProt P19525); experiment: Inhibition of partial length wild type human PRKR expressed in bacterial system assessed as enzyme activity at 1 uM relative to control; set-up: scale not given: the % may be the effect or the level left
[26] = target: Mitogen-activated protein kinase kinase kinase kinase 1 (Homo sapiens) (UniProt Q92918); experiment: Inhibition of full length wild type human HPK1 expressed in bacterial system assessed as enzyme activity at 1 uM relative to control; set-up: scale not given: the % may be the effect or the level left
[27] = target: Serine/threonine-protein kinase PAK 2 (Homo sapiens) (UniProt Q13177); experiment: Inhibition of partial length wild type human PAK2 expressed in bacterial system assessed as enzyme activity at 1 uM relative to control; set-up: scale not given: the % may be the effect or the level left
[28] = target: Serine/threonine-protein kinase 33 (Homo sapiens) (UniProt Q9BYT3); experiment: Inhibition of full length wild type human STK33 expressed in bacterial system assessed as enzyme activity at 1 uM relative to control; set-up: scale not given: the % may be the effect or the level left
[29] = target: Mast/stem cell growth factor receptor Kit (Homo sapiens) (UniProt P10721); experiment: Inhibition of partial length wild type human KIT expressed in bacterial system assessed as enzyme activity at 1 uM relative to control; set-up: scale not given: the % may be the effect or the level left
[30] = target: Mitogen-activated protein kinase kinase kinase 7 (Homo sapiens) (UniProt O43318); experiment: Inhibition of partial length wild type human TAK1 expressed in mammalian system assessed as enzyme activity at 1 uM relative to control; set-up: scale not given: the % may be the effect or the level left
[31] = target: Ribosomal protein S6 kinase alpha-5 (Homo sapiens) (UniProt O75582); experiment: Inhibition of partial length wild type human RPS6KA5 (N-terminal Kinase Domain 1) expressed in bacterial system assessed as enzyme activity at 1 uM relative to control; set-up: scale not given: the % may be the effect or the level left

Serine/threonine-protein kinase/endoribonuclease IRE1 (Homo sapiens), sequence (O75460 19-977 limits assumed): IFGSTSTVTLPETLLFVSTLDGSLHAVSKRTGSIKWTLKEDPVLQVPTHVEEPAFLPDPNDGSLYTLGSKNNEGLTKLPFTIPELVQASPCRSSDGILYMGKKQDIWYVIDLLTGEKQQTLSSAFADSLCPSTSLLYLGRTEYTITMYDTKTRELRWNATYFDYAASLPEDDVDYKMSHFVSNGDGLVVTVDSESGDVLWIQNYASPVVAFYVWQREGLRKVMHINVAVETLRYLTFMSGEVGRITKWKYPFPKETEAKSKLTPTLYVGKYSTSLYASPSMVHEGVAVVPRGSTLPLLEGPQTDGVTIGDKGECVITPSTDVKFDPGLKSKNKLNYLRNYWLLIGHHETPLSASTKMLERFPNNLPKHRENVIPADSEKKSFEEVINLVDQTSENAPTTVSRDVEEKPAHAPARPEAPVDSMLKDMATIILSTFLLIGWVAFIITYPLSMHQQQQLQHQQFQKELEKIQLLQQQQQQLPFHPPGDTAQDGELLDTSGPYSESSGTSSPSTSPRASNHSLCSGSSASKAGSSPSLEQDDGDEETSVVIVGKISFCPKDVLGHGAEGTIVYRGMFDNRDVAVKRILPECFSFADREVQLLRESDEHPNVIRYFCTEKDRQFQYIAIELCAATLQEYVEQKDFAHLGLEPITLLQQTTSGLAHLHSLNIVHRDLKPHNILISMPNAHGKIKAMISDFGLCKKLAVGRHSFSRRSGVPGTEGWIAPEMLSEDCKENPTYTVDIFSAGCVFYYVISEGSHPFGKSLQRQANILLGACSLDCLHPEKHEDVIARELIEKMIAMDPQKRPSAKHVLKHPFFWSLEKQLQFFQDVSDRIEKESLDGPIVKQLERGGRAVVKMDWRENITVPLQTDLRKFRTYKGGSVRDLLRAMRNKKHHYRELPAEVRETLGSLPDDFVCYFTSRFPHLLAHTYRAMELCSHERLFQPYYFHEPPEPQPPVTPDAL
Serine/threonine-protein kinase B-raf, sequence (P15056 whole entry): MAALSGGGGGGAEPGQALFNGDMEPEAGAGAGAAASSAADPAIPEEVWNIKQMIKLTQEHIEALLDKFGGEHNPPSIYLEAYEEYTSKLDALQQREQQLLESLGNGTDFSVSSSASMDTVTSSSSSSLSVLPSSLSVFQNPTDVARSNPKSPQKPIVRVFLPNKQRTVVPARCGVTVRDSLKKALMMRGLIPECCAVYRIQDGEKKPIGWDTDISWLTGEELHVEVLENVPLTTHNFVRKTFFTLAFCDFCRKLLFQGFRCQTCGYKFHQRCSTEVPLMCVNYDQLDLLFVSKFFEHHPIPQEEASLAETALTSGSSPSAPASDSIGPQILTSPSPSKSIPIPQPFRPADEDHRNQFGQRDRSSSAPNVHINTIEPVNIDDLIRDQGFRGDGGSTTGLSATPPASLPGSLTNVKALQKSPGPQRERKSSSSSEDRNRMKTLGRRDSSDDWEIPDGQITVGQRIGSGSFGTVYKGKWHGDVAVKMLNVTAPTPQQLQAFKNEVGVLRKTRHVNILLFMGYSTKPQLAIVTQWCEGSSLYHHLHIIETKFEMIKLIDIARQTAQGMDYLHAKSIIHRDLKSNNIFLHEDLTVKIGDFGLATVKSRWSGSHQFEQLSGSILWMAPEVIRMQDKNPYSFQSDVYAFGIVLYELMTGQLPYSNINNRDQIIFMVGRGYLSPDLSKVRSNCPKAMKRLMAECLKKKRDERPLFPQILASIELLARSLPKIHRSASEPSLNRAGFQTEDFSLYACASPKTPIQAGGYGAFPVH
Mast/stem cell growth factor receptor Kit (Homo sapiens), sequence (P10721 whole entry): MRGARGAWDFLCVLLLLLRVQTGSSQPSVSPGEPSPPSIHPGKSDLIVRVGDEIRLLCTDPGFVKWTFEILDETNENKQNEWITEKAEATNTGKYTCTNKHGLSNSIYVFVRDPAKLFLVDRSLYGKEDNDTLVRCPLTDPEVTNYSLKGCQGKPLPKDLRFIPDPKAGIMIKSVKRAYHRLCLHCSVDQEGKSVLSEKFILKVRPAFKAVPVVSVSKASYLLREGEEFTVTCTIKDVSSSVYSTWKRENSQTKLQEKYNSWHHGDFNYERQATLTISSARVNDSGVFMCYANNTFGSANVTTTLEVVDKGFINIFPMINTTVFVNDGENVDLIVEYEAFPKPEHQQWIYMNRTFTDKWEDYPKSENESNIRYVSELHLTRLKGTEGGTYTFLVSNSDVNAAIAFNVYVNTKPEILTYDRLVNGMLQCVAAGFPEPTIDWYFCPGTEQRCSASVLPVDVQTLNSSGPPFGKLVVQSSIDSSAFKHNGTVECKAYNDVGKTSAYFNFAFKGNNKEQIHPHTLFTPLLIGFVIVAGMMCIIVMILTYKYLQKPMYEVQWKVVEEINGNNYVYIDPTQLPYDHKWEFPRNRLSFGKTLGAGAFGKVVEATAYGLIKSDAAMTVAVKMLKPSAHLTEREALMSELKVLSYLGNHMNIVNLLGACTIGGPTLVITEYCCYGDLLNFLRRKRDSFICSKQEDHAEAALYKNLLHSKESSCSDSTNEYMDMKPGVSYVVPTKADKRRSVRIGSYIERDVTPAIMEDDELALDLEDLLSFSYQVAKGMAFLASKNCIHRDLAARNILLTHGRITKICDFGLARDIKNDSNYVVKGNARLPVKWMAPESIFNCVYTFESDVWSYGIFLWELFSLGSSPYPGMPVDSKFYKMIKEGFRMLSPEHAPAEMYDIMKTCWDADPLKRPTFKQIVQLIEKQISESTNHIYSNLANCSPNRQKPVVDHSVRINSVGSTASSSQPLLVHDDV
Serine/threonine-protein kinase Nek6 (Homo sapiens), sequence (Q9HC98 whole entry): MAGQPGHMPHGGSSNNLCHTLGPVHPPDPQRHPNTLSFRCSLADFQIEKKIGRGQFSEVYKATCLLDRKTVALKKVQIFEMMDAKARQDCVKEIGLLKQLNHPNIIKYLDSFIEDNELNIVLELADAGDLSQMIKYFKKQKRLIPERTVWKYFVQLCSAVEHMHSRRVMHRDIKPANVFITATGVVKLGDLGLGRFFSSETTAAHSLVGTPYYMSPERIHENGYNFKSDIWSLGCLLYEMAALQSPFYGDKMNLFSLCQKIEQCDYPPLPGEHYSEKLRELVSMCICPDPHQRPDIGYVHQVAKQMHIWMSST
Phosphatidylinositol 4,5-bisphosphate 3-kinase catalytic subunit delta isoform (Homo sapiens), sequence (O00329 whole entry, canonical isoform): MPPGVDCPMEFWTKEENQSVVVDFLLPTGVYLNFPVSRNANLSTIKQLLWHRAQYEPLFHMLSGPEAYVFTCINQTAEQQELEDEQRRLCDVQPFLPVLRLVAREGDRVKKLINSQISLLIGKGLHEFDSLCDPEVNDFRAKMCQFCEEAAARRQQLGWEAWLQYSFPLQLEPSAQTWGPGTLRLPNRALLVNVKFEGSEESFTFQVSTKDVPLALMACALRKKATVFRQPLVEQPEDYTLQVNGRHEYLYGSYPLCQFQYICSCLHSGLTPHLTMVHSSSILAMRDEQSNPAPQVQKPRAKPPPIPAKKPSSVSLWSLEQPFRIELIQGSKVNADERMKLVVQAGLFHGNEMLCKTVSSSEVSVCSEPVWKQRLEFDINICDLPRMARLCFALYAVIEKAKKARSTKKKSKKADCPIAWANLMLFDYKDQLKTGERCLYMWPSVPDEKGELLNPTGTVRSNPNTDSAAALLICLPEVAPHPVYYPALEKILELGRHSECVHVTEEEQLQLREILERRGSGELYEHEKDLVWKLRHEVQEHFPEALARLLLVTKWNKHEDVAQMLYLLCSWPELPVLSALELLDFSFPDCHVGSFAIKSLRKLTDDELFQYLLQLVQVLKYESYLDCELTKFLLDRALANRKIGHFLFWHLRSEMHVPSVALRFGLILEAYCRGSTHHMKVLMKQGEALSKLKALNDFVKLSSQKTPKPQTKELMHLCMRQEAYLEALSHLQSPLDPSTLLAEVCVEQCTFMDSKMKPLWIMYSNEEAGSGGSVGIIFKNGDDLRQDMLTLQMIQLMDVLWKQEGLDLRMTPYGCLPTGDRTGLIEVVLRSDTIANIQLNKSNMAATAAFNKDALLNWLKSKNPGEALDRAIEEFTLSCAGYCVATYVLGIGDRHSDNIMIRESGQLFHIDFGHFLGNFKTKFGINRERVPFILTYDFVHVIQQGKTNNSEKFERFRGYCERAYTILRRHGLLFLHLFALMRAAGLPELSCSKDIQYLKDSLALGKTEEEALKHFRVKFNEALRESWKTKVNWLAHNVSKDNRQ
Interferon-induced, double-stranded RNA-activated protein kinase (Homo sapiens), sequence (P19525 whole entry): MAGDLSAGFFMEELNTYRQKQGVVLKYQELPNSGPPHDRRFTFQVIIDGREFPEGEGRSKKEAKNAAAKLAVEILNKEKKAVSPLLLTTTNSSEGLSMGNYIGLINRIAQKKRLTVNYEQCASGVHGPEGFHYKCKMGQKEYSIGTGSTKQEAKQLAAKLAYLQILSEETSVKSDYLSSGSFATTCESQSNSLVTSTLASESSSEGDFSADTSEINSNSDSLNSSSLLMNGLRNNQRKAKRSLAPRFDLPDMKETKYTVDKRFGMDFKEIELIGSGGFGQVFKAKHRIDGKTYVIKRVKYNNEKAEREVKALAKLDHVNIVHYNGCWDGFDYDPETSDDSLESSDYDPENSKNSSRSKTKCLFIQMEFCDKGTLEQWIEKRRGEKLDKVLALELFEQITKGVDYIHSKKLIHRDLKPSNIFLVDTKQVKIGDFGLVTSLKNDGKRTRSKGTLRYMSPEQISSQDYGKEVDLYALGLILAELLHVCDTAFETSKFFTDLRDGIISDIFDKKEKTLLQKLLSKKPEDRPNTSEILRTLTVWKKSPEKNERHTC
Serine/threonine-protein kinase pim-1 (Homo sapiens), sequence (P11309 whole entry, looked up): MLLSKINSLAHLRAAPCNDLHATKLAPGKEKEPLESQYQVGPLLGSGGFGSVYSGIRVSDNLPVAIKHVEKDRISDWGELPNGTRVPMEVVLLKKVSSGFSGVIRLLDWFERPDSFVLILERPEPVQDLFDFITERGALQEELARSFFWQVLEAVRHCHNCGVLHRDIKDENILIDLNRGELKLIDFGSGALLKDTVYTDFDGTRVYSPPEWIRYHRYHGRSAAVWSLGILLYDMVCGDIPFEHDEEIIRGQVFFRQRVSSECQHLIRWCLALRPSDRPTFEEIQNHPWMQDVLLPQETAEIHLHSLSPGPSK

Activity [1]: 94% | Activity [2]: 76% | Activity [3]: 88% | Activity [4]: 100% | Activity [5]: 92% | Activity [6]: 98% | Activity [7]: 100% | Activity [8]: 83% | Activity [9]: 79% | Activity [10]: 63% | Activity [11]: 14% | Activity [12]: 37% | Activity [13]: 79% | Activity [14]: 99% | Activity [15]: 90% | IC50 [16]: 90 nM | Activity [17]: 100% | Activity [18]: 93% | Activity [19]: 100% | Activity [20]: 60% | Activity [21]: 0.9% | Activity [22]: 83% | Activity [23]: 100% | Activity [24]: 92% | Activity [25]: 83% | Activity [26]: 87% | Activity [27]: 94% | Activity [28]: 100% | Activity [29]: 68% | Activity [30]: 70% | Activity [31]: 100%
SMILES: CN(C)S(=O)(=O)Nc1ccc(F)c(Nc2ncccc2-c2ncnc3[nH]cnc23)c1F
